Test results: US20120064176A1, “COMPOSITION FOR PREVENTING AND TREATING FATTY LIVER” (National Chung Hsing University, priority 2008, published 2012)

System: C57BL/6JNarl mice
Experiment: Hepatic triglycerides after 7 weeks of lactoferrin, chromium or lactoferrin+chromium in high-fat-diet mice
Assay type: in vivo
Settings: 10 mice in each group
Description: Male C57BL/6JNarl mice (n=70) fed with high fat diet (high-fat Rodent TestDiet, PMI International Inc., MO, USA; 67% of calories provided by fat), age 8 weeks, are randomly divided into the control group, the low-dose lactoferrin group (NZMP lactoferrin, New Zealand, 40 mg/kg BW/day), the high-dose lactoferrin group (80 mg/kg BW/day), the low-dose chromium group (CrCl3·6H2O, Sigma, Cr^+3 40 μg/kg BW/day), the high dose chromium group (Cr^+3 80 μg/kg BW/day), the low-dose lactoferrin+chromium group (lactoferrin 40 mg/kg BW/day+Cr^+3 40 μg/kg BW/day), and the high-dose lactoferrin+chromium group (lactoferrin 80 mg/kg BW/day+Cr^+3 80 μg/kg BW/day) (10 mice in each group). After supplementation for 7 weeks, the C57BL/6JNarl mice are sacrificed and their livers are harvested. Then, the level of hepatic triglycerides is analyzed. […] However, no significant difference between the other groups is found.

With `O.O.O.O.O.O.[Cl][Cr]([Cl])[Cl]` [chromium, CrCl3·6H2O] the “Hepatic triglycerides, High-dose” value (High-dose: lactoferrin 80 mg/kg BW/day and/or Cr+3 80 μg/kg BW/day) was 19.0 ± 5.7 μ mol/g liver and the “Hepatic triglycerides, Low-dose” value (Low-dose: lactoferrin 40 mg/kg BW/day and/or Cr+3 40 μg/kg BW/day) was 18.4 ± 8.1 μ mol/g liver.
